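Tested at 5 concentrations; 48 h exposure; 96-well plates; endpoints linearly interpolated, else capped at highest concentration. GI50 = concentration required for 50% inhibition of growth.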 The source made the active and inactive calls. Cut-off read from the data, not from the text of the source: active = GI50 up to about 1.1 µM and inactive = higher.
How the values were obtained:
Test in all cases: NCI tumour cell line growth inhibition, 48 h
[1] = tested on: HCT-116
[2] = tested on: UACC-257
[3] = tested on: SNB-19
[4] = tested on: U-251
[5] = tested on: OVCAR-3
[6] = tested on: UO-31
[7] = tested on: HOP-62
[8] = tested on: NCI-H23
[9] = tested on: SNB-75
[10] = tested on: DU-145
[11] = tested on: SF-539
[12] = tested on: SN12C
[13] = tested on: COLO 205
[14] = tested on: MOLT-4
[15] = tested on: NCI-H460
[16] = tested on: EKVX
[17] = tested on: KM12
[18] = tested on: MDA-MB-231
[19] = tested on: NCI-H226
[20] = tested on: CAKI-1
[21] = tested on: 786-0
[22] = tested on: SK-MEL-28
[23] = tested on: RPMI-8226
[24] = tested on: SF-268
[25] = tested on: Malme-3M
[26] = tested on: HOP-92
[27] = tested on: BT-549
[28] = tested on: K562
[29] = tested on: MDA-MB-435
[30] = tested on: UACC-62
[31] = tested on: RXF 393
[32] = tested on: SK-OV-3
[33] = tested on: MCF7
[34] = tested on: A498
[35] = tested on: SR
[36] = tested on: OVCAR-8
[37] = tested on: MDA-N
[38] = tested on: HCT-15
[39] = tested on: SF-295
[40] = tested on: NCI-H522
[41] = tested on: A549
[42] = tested on: ACHN
[43] = tested on: HCC 2998
[44] = tested on: T47D
[45] = tested on: M14
[46] = tested on: OVCAR-4
[47] = tested on: PC-3
[48] = tested on: NCI/ADR-RES
[49] = tested on: CCRF-CEM
[50] = tested on: OVCAR-5
[51] = tested on: HT-29
[52] = tested on: LOX IMVI
[53] = tested on: HL-60
[54] = tested on: IGROV-1
[55] = tested on: SK-MEL-5
[56] = tested on: SK-MEL-2
[57] = tested on: SW-620
[58] = tested on: TK-10

Measured: GI50

Cc1sc(Nc2ccccc2[N+](=O)[O-])c(C#N)c1C
23 µM: [38]
active: [25] 0.0556 µM
inactive: [1] 17.5 µM | [2] > 100 µM | [3] 26.2 µM | [4] 21.3 µM | [5] 19.8 µM | [6] > 100 µM | [7] 20.8 µM | [8] 13.9 µM | [9] 12.1 µM | [10] 65.2 µM | [11] 21.5 µM | [12] 40.3 µM | [13] > 100 µM | [14] > 100 µM | [15] > 100 µM | [16] 35.4 µM | [17] > 100 µM | [18] 19.6 µM | [19] 39.7 µM | [20] 17.1 µM | [21] 22.6 µM | [22] 99.3 µM | [23] > 100 µM | [24] 14.5 µM | [26] 18.7 µM | [27] 19.5 µM | [28] > 100 µM | [29] > 100 µM | [30] 77.8 µM | [31] 5.12 µM | [32] 66.1 µM | [33] 94.2 µM | [34] 29.4 µM | [35] > 100 µM | [36] 27.7 µM | [37] > 100 µM | [39] 26.2 µM | [40] 2.7 µM | [41] > 100 µM | [42] 31 µM | [43] > 100 µM | [44] 28.4 µM | [45] > 100 µM | [46] 43.6 µM | [47] 94.8 µM | [48] 16.8 µM | [49] > 100 µM | [50] 23 µM

COc1cc(Br)cc2cc(C3=CSC4=NCCN34)c(=O)oc12
inactive: [1] 17.8 µM | [2] 25.3 µM | [3] 18.1 µM | [4] 18.1 µM | [51] 19.1 µM | [5] 16.8 µM | [52] 18.2 µM | [6] 19.3 µM | [53] 29.4 µM | [54] 17.6 µM | [7] 19.3 µM | [8] 20.1 µM | [9] 21 µM | [10] 17.8 µM | [11] 19.9 µM | [12] 17.5 µM | [13] 20.7 µM | [14] 20 µM | [15] 19.9 µM | [16] 17.7 µM | [17] 20 µM | [18] 19.6 µM | [20] 34.7 µM | [55] 20 µM | [56] 20.3 µM | [57] 25.3 µM | [21] 18.4 µM | [22] 29.5 µM | [23] 22.7 µM | [26] 17.1 µM | [27] 22 µM | [28] 26.5 µM | [29] 17.8 µM | [30] 17.8 µM | [31] 17.5 µM | [32] 27.9 µM | [33] 18 µM | [35] 21.9 µM | [36] 17.8 µM | [37] 18.5 µM | [39] 19.4 µM | [58] 18.8 µM | [41] 21.3 µM | [42] 28.3 µM | [44] 17.5 µM | [45] 22.2 µM | [46] 18.2 µM | [47] 18.3 µM | [48] 65.9 µM | [49] 25.8 µM | [50] 23.3 µM
17.2 µM: [38]

O=C(CN1CCCCC1)Nc1ccc2c(c1)C1Oc3ccccc3CC1CO2 (stereo not given)
inactive: [1] 16.2 µM | [2] 19.2 µM | [4] 18 µM | [51] 14.5 µM | [5] 27.8 µM | [52] 16.4 µM | [6] 21.2 µM | [53] 46.1 µM | [54] 21.1 µM | [7] 16.9 µM | [8] 24.9 µM | [10] 35.2 µM | [11] 19.1 µM | [12] 28.4 µM | [13] 13.3 µM | [14] 31.5 µM | [16] 17.2 µM | [17] 20.5 µM | [18] 17.3 µM | [19] 21 µM | [20] 35.9 µM | [55] 13.8 µM | [56] 20.2 µM | [57] 18.8 µM | [21] 20.7 µM | [23] 28.8 µM | [24] 34.2 µM | [25] 16.7 µM | [26] 18.3 µM | [27] 19.9 µM | [28] 58.9 µM | [29] 18.7 µM | [30] 16.4 µM | [32] 32.8 µM | [33] 21.8 µM | [34] 30.3 µM | [35] 23.2 µM | [36] 39 µM | [37] 19 µM | [39] 19.5 µM | [58] 23.8 µM | [40] 17.9 µM | [41] 32.5 µM | [43] 19.1 µM | [44] 16.4 µM | [45] 18.2 µM | [47] 17.7 µM | [48] 23.9 µM | [49] 34.3 µM | [50] 18.7 µM
15.5 µM: [38]

CCN(CC)C(=S)N/N=C/c1ccccn1
< 0.01 µM: [38]
active: [1] < 0.01 µM | [2] < 0.01 µM | [3] < 0.0118 µM | [4] < 0.01 µM | [51] < 0.01 µM | [5] < 0.01 µM | [52] < 0.01 µM | [6] 0.0415 µM | [53] < 0.0149 µM | [54] < 0.01 µM | [7] < 0.01 µM | [8] < 0.01 µM | [9] 0.624 µM | [10] 0.154 µM | [11] < 0.0382 µM | [12] 0.0212 µM | [13] < 0.01 µM | [14] < 0.01 µM | [15] 0.0143 µM | [16] < 0.01 µM | [18] < 0.01 µM | [19] < 0.0138 µM | [20] < 0.01 µM | [55] < 0.0174 µM | [56] 0.625 µM | [57] < 0.01 µM | [21] < 0.01 µM | [22] 0.187 µM | [23] < 0.01 µM | [24] < 0.0177 µM | [25] 0.0205 µM | [26] 0.113 µM | [27] 0.37 µM | [28] < 0.01 µM | [29] 0.12 µM | [30] < 0.0328 µM | [32] < 0.0192 µM | [33] < 0.01 µM | [36] < 0.01 µM | [37] 0.166 µM | [39] < 0.0483 µM | [40] < 0.01 µM | [41] 0.0239 µM | [42] < 0.0172 µM | [43] 0.149 µM | [44] < 0.01 µM | [45] 0.0324 µM | [47] < 0.01 µM | [48] < 0.01 µM | [49] < 0.01 µM | [50] 0.2 µM

Reference: ChEMBL document CHEMBL1201862, “PubChem BioAssay data set” (2004)
